The source made the active and inactive calls. No cut-off for these calls is given here.
Experiments:
[1] = molecular target: T1, 5-hydroxytryptamine receptor 7 (Homo sapiens, UniProt P34969); experiment: Displacement of [3H]5-HT from human 5-HT7 receptor expressed in HEK293 cells after 30 mins by microbeta counting analysis; format: cell-based
[2] = molecular target: T1, 5-hydroxytryptamine receptor 7; experiment: Agonist activity at human 5-HT7 receptor expressed in CHO cells assessed as stimulation of cAMP accumulation up to 10^-5 M; format: functional, cell-based
[3] = molecular target: T1, 5-hydroxytryptamine receptor 7; experiment: Antagonist activity at human 5-HT7 receptor expressed in CHO cells assessed as inhibition of 5-HT-stimulated cAMP accumulation; format: functional, cell-based
[4] = molecular target: T1, 5-hydroxytryptamine receptor 7; experiment: Antagonist activity at human 5-HT7 receptor expressed in CHO cells assessed as inhibition of 5-HT-stimulated cAMP accumulation by Cheng-Prusoff method; format: functional, cell-based
[5] = molecular target: T1, 5-hydroxytryptamine receptor 7; experiment: Antagonist activity at human 5-HT7 receptor expressed in CHO cells assessed as residual 5-HT-stimulated cAMP accumulation at 1 uM relative to control

T1 sequence (P34969 whole entry): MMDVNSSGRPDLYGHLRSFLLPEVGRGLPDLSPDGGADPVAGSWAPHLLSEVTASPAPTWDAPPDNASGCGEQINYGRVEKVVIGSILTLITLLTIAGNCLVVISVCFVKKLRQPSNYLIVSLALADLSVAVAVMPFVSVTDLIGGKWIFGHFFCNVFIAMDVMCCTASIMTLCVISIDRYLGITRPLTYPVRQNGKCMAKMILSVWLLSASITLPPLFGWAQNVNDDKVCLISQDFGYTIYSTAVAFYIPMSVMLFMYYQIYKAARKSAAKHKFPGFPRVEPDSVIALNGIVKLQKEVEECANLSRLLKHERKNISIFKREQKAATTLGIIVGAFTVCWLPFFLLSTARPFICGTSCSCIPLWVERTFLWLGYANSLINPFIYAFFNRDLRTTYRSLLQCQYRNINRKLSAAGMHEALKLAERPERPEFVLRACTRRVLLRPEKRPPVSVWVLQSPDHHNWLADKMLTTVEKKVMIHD

## CN(CCCCN1CCN(c2ccccc2)CC1)c1cccc(O)c1
[1]
  Ki: 30 nM
[2]
  Activity: inactive
[3]
  IC50: 540 nM
[4]
  Kb: 57 nM
[5]
  % serotonin response: 39%

From ChEMBL document CHEMBL3259775, “Towards the development of 5-HT₇ ligands combining serotonin-like and arylpiperazine moieties” (Eur J Med Chem, 2014)
